Source: patent US7601746B2 (Shionogi & Co., Ltd., priority 2003, dated 2009)

Molecular target: T1, human TPO receptor (hTPOR) (Homo sapiens, UniProt P40238)
T1 construct: expressed in transfected cells; host or cells: BaF-B03 (murine IL-3 dependent cell line)
T1 sequence (P40238 26-635): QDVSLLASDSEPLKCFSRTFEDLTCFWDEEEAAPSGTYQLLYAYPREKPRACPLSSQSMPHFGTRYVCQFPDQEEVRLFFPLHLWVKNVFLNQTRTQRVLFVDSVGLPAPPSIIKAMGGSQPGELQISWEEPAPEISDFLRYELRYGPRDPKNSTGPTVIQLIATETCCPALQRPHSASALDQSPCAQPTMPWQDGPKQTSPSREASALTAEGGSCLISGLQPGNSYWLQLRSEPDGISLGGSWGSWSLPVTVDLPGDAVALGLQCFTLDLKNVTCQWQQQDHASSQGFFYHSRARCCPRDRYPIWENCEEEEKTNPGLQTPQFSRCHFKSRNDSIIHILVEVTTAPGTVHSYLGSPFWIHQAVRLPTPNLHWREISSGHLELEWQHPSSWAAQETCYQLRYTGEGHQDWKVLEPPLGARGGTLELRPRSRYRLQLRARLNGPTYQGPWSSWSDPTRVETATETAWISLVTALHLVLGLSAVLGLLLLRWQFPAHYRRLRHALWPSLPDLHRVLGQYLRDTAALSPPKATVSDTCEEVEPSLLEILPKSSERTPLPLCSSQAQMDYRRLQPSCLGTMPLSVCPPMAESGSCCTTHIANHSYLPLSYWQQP
Assay: Thrombopoietic activity: proliferation of TPO dependent BaF/hTPOR cells (WST-1, absorbance at 450 nm)
Type: cell-based
Settings: 20 h + 4 h WST-1, ED50 = half concentration of the concentration showing the maximum thrombopoietic activity, Table 1
From the text: The TPO dependent BaF/hTPOR cell line which was established by introducing human TPO receptor (hTPOR) into BaF-B03 cells according to Collins et al (J. Cell. Physiol., 137:293-298 (1988)) was used to test the thrombopoietic activity of the present compound. The DNA sequences and encoded peptide sequences for human hTPOR have been described by Vigon et al (Proc. Natl. Acad. Sci. USA, 89:5640-5644 (1992)). TPO dose not have any ability to support proliferation of interlukin-3 dependent parental cell line BaF-B03. BAF/hTPOR cells were maintained in RPMI medium and WEHI-3B conditioned medium as a source of murine interleukin-3 (IL-3). These cells were washed and resuspended in RPMI medium without a source of murine IL-3 and seeded into each well of 96-well microtiter plates at a density of 5×10^4 cells per well in the absence or presence of various concentration of hTPO or the present compound. After incubation at 37° C. for 20 hours in the 5% CO2 incubator, 10% WST-1 reagent (Takara Biomedicals, Japan) was added to each wells and the cells were further incubated for 4 hours. The absorbance at 450 nm was measured. Tables 1 and 2 exemplify the ED50 for tested compounds of the present invention, wherein the ED50 is the half concentration of the concentration showing the maximum thrombopoietic activity.

Compound	EC50
CCCCCOC(C)c1cccc(-c2csc(NC(=O)c3cc(F)c(C=C(C)C(=O)O)c(F)c3)n2)c1F (centres unmarked) [Compound B31, 3-(2,6-difluoro-4-{4-[2-fluoro-3-(1-n-pentyloxyethyl)phenyl]thiazol-2-ylcarbamoyl}phenyl)-2-methylacrylic acid]	0.85 nM
CCCCCCCCCCOCc1cccc(-c2csc(NC(=O)c3cc(F)c(C=C(C)C(=O)O)c(F)c3)n2)c1F [Compound B32, 3-(2,6-difluoro-4-{4-[2-fluoro-3-(n-decyloxymethyl)phenyl]thiazol-2-ylcarbamoyl}phenyl)-2-methylacrylic acid]	3.03 nM
CCCCCOCc1cccc(-c2csc(NC(=O)c3cc(F)c(C=C(C)C(=O)O)c(F)c3)n2)c1F [Compound B33, 3-(2,6-difluoro-4-{4-[2-fluoro-3-(n-pentyloxymethyl)phenyl]thiazol-2-ylcarbamoyl}phenyl)-2-methylacrylic acid]	3.33 nM
CCCOC(CCC)c1cccc(-c2csc(NC(=O)c3cc(F)c(C=C(C)C(=O)O)c(F)c3)n2)c1F (centres unmarked) [Compound B34, 3-(2,6-difluoro-4-{4-[2-fluoro-3-(1-n-propyloxybutyl)phenyl]thiazol-2-ylcarbamoyl}phenyl)-2-methylacrylic acid]	0.99 nM
CCCCOC(CCC)c1cccc(-c2csc(NC(=O)c3cc(F)c(C=C(C)C(=O)O)c(F)c3)n2)c1F (centres unmarked) [Compound B35, 3-(4-{4-[3-(1-n-butyloxybutyl)-2-fluorophenyl]thiazol-2-ylcarbamoyl}-2,6-difluorophenyl)-2-methylacrylic acid]	0.77 nM
CCCCCOC(CCC)c1cccc(-c2csc(NC(=O)c3cc(F)c(C=C(C)C(=O)O)c(F)c3)n2)c1F (centres unmarked) [Compound B36, 3-(2,6-difluoro-4-{4-[2-fluoro-3-(1-n-pentyloxybutyl)phenyl]thiazol-2-ylcarbamoyl}phenyl)-2-methylacrylic acid]	0.63 nM
CCCCOC(CC)c1cccc(-c2csc(NC(=O)c3cc(F)c(C=C(C)C(=O)O)c(F)c3)n2)c1F (centres unmarked) [Compound B37, 3-(4-{4-[3-(1-n-butyloxypropyl)-2-fluorophenyl]thiazol-2-ylcarbamoyl}-2,6-difluorophenyl)-2-methylacrylic acid]	0.88 nM
CCCCCCOC(CC)c1cccc(-c2csc(NC(=O)c3cc(F)c(C=C(C)C(=O)O)c(F)c3)n2)c1F (centres unmarked) [Compound B38, 3-(2,6-difluoro-4-{4-[2-fluoro-3-(1-n-hexyloxypropyl)phenyl]thiazol-2-ylcarbamoyl}phenyl)-2-methylacrylic acid]	0.62 nM
CC(=Cc1c(F)cc(C(=O)Nc2nc(-c3cccc(CCCOCCCC(C)C)c3F)cs2)cc1F)C(=O)O [Compound B39, 3-[2,6-difluoro-4-(4-(2-fluoro-3-[3-(4-methylpentyloxy)propyl]phenyl}thiazol-2-ylcarbamoyl)phenyl]-2-methylacrylic acid]	1.01 nM
CC(=Cc1c(F)cc(C(=O)Nc2nc(-c3cccc(CCCOCCC(C)(C)C)c3F)cs2)cc1F)C(=O)O [Compound B40, 3-[2,6-difluoro-4-(4-{3-[3-(3,3-dimethylbutyloxy)propyl]-2-fluorophenyl}thiazol-2-ylcarbamoyl)phenyl]-2-methylacrylic acid]	0.88 nM
CCCCC(OCCC)c1cccc(-c2csc(NC(=O)c3cc(F)c(C=C(C)C(=O)O)c(F)c3)n2)c1F (centres unmarked) [Compound B41, 3-(2,6-difluoro-4-{4-[2-fluoro-3-(1-n-propyloxypentyl)phenyl]thiazol-2-ylcarbamoyl}phenyl)-2-methylacrylic acid]	0.67 nM
CCCCOC(CCCC)c1cccc(-c2csc(NC(=O)c3cc(F)c(C=C(C)C(=O)O)c(F)c3)n2)c1F (centres unmarked) [Compound B42, 3-(4-{4-[3-(1-n-butyloxypentyl)-2-fluorophenyl]thiazol-2-ylcarbamoyl}-2,6-difluorophenyl]-2-methylacrylic acid]	0.34 nM
CCC(CC)COCCCc1cccc(-c2csc(NC(=O)c3cc(F)c(C=C(C)C(=O)O)c(F)c3)n2)c1F [Compound B43, 3-[2,6-difluoro-4-(4-{3-[3-(2-ethylbutyloxy)propyl]-2-fluorophenyl}thiazol-2-ylcarbamoyl}phenyl)-2-methylacrylic acid]	1.65 nM
CC(=Cc1c(F)cc(C(=O)Nc2nc(-c3cccc(CCCOCCC4CCCC4)c3F)cs2)cc1F)C(=O)O [Compound B44, 3-[4-(4-{3-[3-(2-cyclopentylethyloxy)propyl]-2-fluorophenyl}thiazol-2-ylcarbamoyl}-2,6-difluorophenyl)-2-methylacrylic acid]	1.27 nM

Next, values leading:

EC50	Compound
1.36 nM	CCCCCOCCCc1cccc(-c2csc(NC(=O)c3cc(F)c(C=C(C)C(=O)O)c(F)c3)n2)c1F [Compound B45, 3-(2,6-difluoro-4-{4-[2-fluoro-3-(3-n-pentyloxypropyl)phenyl]thiazol-2-ylcarbamoyl}phenyl)-2-methylacrylic acid]
1.28 nM	CCCCCCOCCCc1cccc(-c2csc(NC(=O)c3cc(F)c(C=C(C)C(=O)O)c(F)c3)n2)c1F [Compound B46, 3-(2,6-difluoro-4-{4-[2-fluoro-3-(3-n-hexyloxypropyl)phenyl]thiazol-2-ylcarbamoyl}phenyl)-2-methylacrylic acid]
2.8 nM	CCCCCCCCCCC(OC)c1cccc(-c2csc(NC(=O)c3cc(F)c(C=C(C)C(=O)O)c(F)c3)n2)c1F (centres unmarked) [Compound B47, 3-(2,6-difluoro-4-{4-[2-fluoro-3-(1-methyloxyundecyl)phenyl]thiazol-2-ylcarbamoyl}phenyl)-2-methylacrylic acid]
2.23 nM	CCCCCCCCCCCC(OC)c1cccc(-c2csc(NC(=O)c3cc(F)c(C=C(C)C(=O)O)c(F)c3)n2)c1F (centres unmarked) [Compound B48, 3-(2,6-difluoro-4-{4-[2-fluoro-3-(1-methyloxydodecyl)phenyl]thiazol-2-ylcarbamoyl}phenyl)-2-methylacrylic acid]
1.3 nM	CCCCOCCCc1cccc(-c2csc(NC(=O)c3cc(F)c(C=C(C)C(=O)O)c(F)c3)n2)c1F [Compound B49, 3-(4-{4-[3-(3-n-butyloxypropyl)-2-fluorophenyl]thiazol-2-ylcarbamoyl}-2,6-difluorophenyl)-2-methylacrylic acid]
0.8 nM	CCCCOC(C)c1cccc(-c2csc(NC(=O)c3cc(F)c(C=C(C)C(=O)O)c(F)c3)n2)c1F (centres unmarked) [Compound B50, 3-(4-{4-[3-(1-n-butyloxyethyl)-2-fluorophenyl]thiazol-2-ylcarbamoyl}-2,6-difluorophenyl)-2-methylacrylic acid]
0.68 nM	CCCCOCCCC(OCCCC)c1cccc(-c2csc(NC(=O)c3cc(F)c(C=C(C)C(=O)O)c(F)c3)n2)c1F (centres unmarked) [Compound B51, 3-(4-{4-[3-(1,4-dibutyloxybutyl)-2-fluorophenyl]thiazol-2-ylcarbamoyl}-2,6-difluorophenyl)-2-methylacrylic acid]
1.7 nM	CCCCCCOCCC(OC)c1cccc(-c2csc(NC(=O)c3cc(F)c(C=C(C)C(=O)O)c(F)c3)n2)c1F (centres unmarked) [Compound B52, 3-(2,6-difluoro-4-{4-[2-fluoro-3-(3-n-hexyloxy-1-methyloxyproyl)phenyl]thiazol-2-ylcarbamoyl}phenyl)-2-methylacrylic acid]
1.4 nM	CCCCCOCCCC(OC)c1cccc(-c2csc(NC(=O)c3cc(F)c(C=C(C)C(=O)O)c(F)c3)n2)c1F (centres unmarked) [Compound B53, 3-(2,6-difluoro-4-{4-[2-fluoro-3-(1-methyloxy-4-n-pentyloxybutyl)phenyl]thiazol-2-ylcarbamoyl}phenyl)-2-methylacrylic acid]
2.7 nM	CCOC(c1cccc(-c2csc(NC(=O)c3cc(Cl)c(C=C(C)C(=O)O)c(Cl)c3)n2)c1F)C(C)(C)C (centres unmarked) [Compound B56, 3-(2,6-dichloro-4-{4-[3-(1-ethyloxy-2,2-dimethylpropyl)-2-fluorophenyl]thiazol-2-ylcarbamoyl}phenyl)-2-methylacrylic acid]
1.5 nM	CCCCCC(OC)c1cccc(-c2csc(NC(=O)c3cc(Cl)c(C=C(C)C(=O)O)c(Cl)c3)n2)c1F (centres unmarked) [Compound B58, 3-(2,6-dichloro-4-{4-[2-fluoro-3-(1-methyloxyhexyl)phenyl]thiazol-2-ylcarbamoyl}phenyl)-2-methylacrylic acid]
0.75 nM	COC(CCC(C)C)c1cccc(-c2csc(NC(=O)c3cc(Cl)c(C=C(C)C(=O)O)c(Cl)c3)n2)c1F (centres unmarked) [Compound B60, 3-(2,6-dichloro-4-{4-[2-fluoro-3-(1-methyloxy-4-methylpentyl)phenyl]thiazol-2-ylcarbamoyl}phenyl)-2-methylacrylic acid]
